Data published in patent US20250041379A1, “METHODS AND COMPOSITIONS FOR THE TREATMENT OF CANCER” (Vigeo Therapeutics, Inc., priority 2021, published 2025).
No end group written: not given here.

Columns and labels:
[1] = system: circulating immune cells (CTLs, helper T cells, MDSCs); assay: Flow cytometry of immune cells isolated from whole blood of rGBM subjects; assay type: in vivo, human; settings: Cycle 1 Day 1
Description: FIG. 11A, FIG. 11B, FIG. 11C, FIG. 11D, FIG. 11E, and FIG. 11F are charts showing modulation of the immune system by VT1021 in circulation and in the TME. […] Proliferating CTLs increased ≥1.5 fold regardless of clinical response, proliferating helper T cells increased ≥1.5 fold in CR/PR and PD subjects while monocytic MDSCs (mMDSCs) and activated MDSCs decreased≤0.5 fold in all evaluable subjects. […] Percent of M1 increased 1.9-fold while M2 decreased 0.6-fold after treatment. […] CTLs increased >4 fold while total and mMDSCs […] >15 fold in the on-study biopsy compared to pre-treatment.

[2] = VT1021 concentration in plasma (pharmacokinetic profile) in the clinical study; assay type: in vivo, human; settings: phase I/II study
Description: FIG. 2 is a chart showing the pharmacokinetic profile of VT1021 concentration in the plasma of human patients with glioblastoma (red), pancreatic cancer (green), ovarian cancer (blue), other (purple) or not reported (red) over time following the initial administration at time 0. “Others” and “Not reported” refer to subjects enrolled in the clinical trial with solid tumor indications other than GBM, Panc, and Ovarian cancers.
FIG. 7 is a chart showing the pharmacokinetic profile of VT1021 concentration in the plasma of male (solid line) and female (dotted line) glioblastoma patients over time following the initial administration at time 0.
In the “expansion stage” of the VT1021-01 Study, subjects diagnosed with recurrent GBM, pancreatic cancer, ovarian cancer and other solid tumors were enrolled. […] The correlation between days on study and tumor shrinkage versus expression profile of CD36 and CD47 was analyzed (FIG. 4). The general expression profile of CD36 and CD47 has been assessed by IHC on Tumor Tissue Microarrays (TMAs), which contain biopsy samples collected from pancreatic cancer patients. […]
The blood samples were collected from GBM subjects in the expansion phase, who were treated by VT1021 at 11.8 mg/kg, twice weekly, by IV infusion. VT1021 levels were measured and analyzed among male and female subjects (FIG. 7). […]

[3] = whole blood before and after 6 hours, all evaluable subjects, decreased

Substance: cyclic DWLPK (also: cyclic, mode of cyclisation not given here) [VT1021, 5-amino acid cyclic peptide from prosaposin; Tsp-1-inducing agent]
- Proliferating CTLs, fold change ([1]; whole blood before and after 6 hours of treatment, regardless of clinical response, increased): ≥ 1.5 fold
- proliferating helper T cells, fold change ([1]; whole blood before and after 6 hours, CR/PR and PD subjects, increased): ≥ 1.5 fold
- activated MDSCs, fold change [1, 3]: ≤ 0.5 fold
- monocytic MDSCs (mMDSCs), fold change [1, 3]: ≤ 0.5 fold
- pharmacokinetic profile ([2]; solid tumors including pancreatic cancer): predictable
- pharmacokinetic profile ([2]; solid tumors including rGBM): predictable
